Converted amounts (≈) assume the structure as drawn.
Each compound was assayed on S. aureus ATCC 29213 (assay: MIC determination). Conditions: Staphylococcus aureus, ATCC29213, S. aureus ATCC 29213; read-out: MIC.
Assay type: cell-based

| SMILES | MIC [µg/mL] |
| --- | --- |
| CSC1O[C@H]([C@H](NC(=O)[C@H]2NC[C@@H]3C[C@@H](c4cccc(F)c4)CCO[C@H]32)[C@H](C)Cl)C(O)[C@@H](O)[C@H]1O (some centres unmarked) [FSA-511077] | 0.25 (≈ 0.469 µM) |
| CSC1O[C@H]([C@H](NC(=O)[C@H]2NC[C@@H]3C=C(c4cc(F)cc(F)c4)CCO[C@@H]23)[C@H](C)Cl)C(O)[C@@H](O)[C@H]1O (some centres unmarked) [FSA-511074] | 2 (≈ 3.64 µM) |

The compounds below were run on S. aureus BAA 977 iErmA (assay: MIC determination). Conditions: Staphylococcus aureus, BAA977.
Assay type: cell-based

| SMILES | MIC [µg/mL] |
| --- | --- |
| CSC1O[C@H]([C@H](NC(=O)[C@H]2NC[C@@H]3C[C@@H](c4cccc(F)c4)CCO[C@H]32)[C@H](C)Cl)C(O)[C@@H](O)[C@H]1O (some centres unmarked) [FSA-511077] | 0.25 (≈ 0.469 µM) |
| CSC1O[C@H]([C@H](NC(=O)[C@H]2NC[C@@H]3C=C(c4cc(F)cc(F)c4)CCO[C@@H]23)[C@H](C)Cl)C(O)[C@@H](O)[C@H]1O (some centres unmarked) [FSA-511074] | 2 (≈ 3.64 µM) |

What follows are compounds tested on S. aureus MP-549 msr(a) USA 300 (assay: MIC determination). Conditions: Staphylococcus aureus, USA300, S. aureus MP-549 msr(a) USA 300.
Assay type: cell-based

| SMILES | MIC [µg/mL] |
| --- | --- |
| CSC1O[C@H]([C@H](NC(=O)[C@H]2NC[C@@H]3C[C@@H](c4cccc(F)c4)CCO[C@H]32)[C@H](C)Cl)C(O)[C@@H](O)[C@H]1O (some centres unmarked) [FSA-511077] | 0.25 (≈ 0.469 µM) |
| CSC1O[C@H]([C@H](NC(=O)[C@H]2NC[C@@H]3C=C(c4cc(F)cc(F)c4)CCO[C@@H]23)[C@H](C)Cl)C(O)[C@@H](O)[C@H]1O (some centres unmarked) [FSA-511074] | 1 (≈ 1.82 µM) |

The compounds below were run on S. aureus MMX 3035 cErmA (assay: MIC determination). Conditions: Staphylococcus aureus, MMX3035CERMA; S. aureus MMX 3035 cErmA; read-out: MIC.
Assay type: cell-based

| SMILES | MIC [µg/mL] |
| --- | --- |
| CSC1O[C@H]([C@H](NC(=O)[C@H]2NC[C@@H]3C[C@@H](c4cccc(F)c4)CCO[C@H]32)[C@H](C)Cl)C(O)[C@@H](O)[C@H]1O (some centres unmarked) [FSA-511077] | > 64 |
| CSC1O[C@H]([C@H](NC(=O)[C@H]2NC[C@@H]3C=C(c4cc(F)cc(F)c4)CCO[C@@H]23)[C@H](C)Cl)C(O)[C@@H](O)[C@H]1O (some centres unmarked) [FSA-511074] | > 64 |

These compounds were tested on S. pneumoniae ATCC 49619 (assay: MIC determination). Conditions: Streptococcus pneumoniae, ATCC49619; S. pneumoniae ATCC 49619; read-out: MIC.
Assay type: cell-based

| SMILES | MIC [µg/mL] |
| --- | --- |
| CSC1O[C@H]([C@H](NC(=O)[C@H]2NC[C@@H]3C[C@@H](c4cccc(F)c4)CCO[C@H]32)[C@H](C)Cl)C(O)[C@@H](O)[C@H]1O (some centres unmarked) [FSA-511077] | ≤ 0.06 |
| CSC1O[C@H]([C@H](NC(=O)[C@H]2NC[C@@H]3C=C(c4cc(F)cc(F)c4)CCO[C@@H]23)[C@H](C)Cl)C(O)[C@@H](O)[C@H]1O (some centres unmarked) [FSA-511074] | 0.25 (≈ 0.455 µM) |

These compounds were tested on S. pneumoniae MMX 3028 cErmB (assay: MIC determination). Conditions: Streptococcus pneumoniae, MMX3028CERMB.
Assay type: cell-based

| SMILES | MIC [µg/mL] |
| --- | --- |
| CSC1O[C@H]([C@H](NC(=O)[C@H]2NC[C@@H]3C=C(c4cc(F)cc(F)c4)CCO[C@@H]23)[C@H](C)Cl)C(O)[C@@H](O)[C@H]1O (some centres unmarked) [FSA-511074] | 64 (≈ 117 µM) |

Same assay, conditions: Streptococcus pneumoniae, MMX3028CERMB; S. pneumoniae MMX 3028 cErmB; read-out: MIC

| SMILES | MIC [µg/mL] |
| --- | --- |
| CSC1O[C@H]([C@H](NC(=O)[C@H]2NC[C@@H]3C[C@@H](c4cccc(F)c4)CCO[C@H]32)[C@H](C)Cl)C(O)[C@@H](O)[C@H]1O (some centres unmarked) [FSA-511077] | 8 (≈ 15 µM) |

Each compound was assayed on S. pneumoniae MMX 3031 cMefA (assay: MIC determination). Conditions: Streptococcus pneumoniae, MMX3031CMEFA.
Assay type: cell-based

| SMILES | MIC [µg/mL] |
| --- | --- |
| CSC1O[C@H]([C@H](NC(=O)[C@H]2NC[C@@H]3C[C@@H](c4cccc(F)c4)CCO[C@H]32)[C@H](C)Cl)C(O)[C@@H](O)[C@H]1O (some centres unmarked) [FSA-511077] | ≤ 0.06 |
| CSC1O[C@H]([C@H](NC(=O)[C@H]2NC[C@@H]3C=C(c4cc(F)cc(F)c4)CCO[C@@H]23)[C@H](C)Cl)C(O)[C@@H](O)[C@H]1O (some centres unmarked) [FSA-511074] | 0.25 (≈ 0.455 µM) |

These compounds were tested on S. pyogenes ATCC 19615 (assay: MIC determination). Conditions: Streptococcus pyogenes, ATCC19615; S. pyogenes ATCC 19615; read-out: MIC.
Assay type: cell-based

| SMILES | MIC [µg/mL] |
| --- | --- |
| CSC1O[C@H]([C@H](NC(=O)[C@H]2NC[C@@H]3C[C@@H](c4cccc(F)c4)CCO[C@H]32)[C@H](C)Cl)C(O)[C@@H](O)[C@H]1O (some centres unmarked) [FSA-511077] | ≤ 0.06 |
| CSC1O[C@H]([C@H](NC(=O)[C@H]2NC[C@@H]3C=C(c4cc(F)cc(F)c4)CCO[C@@H]23)[C@H](C)Cl)C(O)[C@@H](O)[C@H]1O (some centres unmarked) [FSA-511074] | 0.5 (≈ 0.911 µM) |

What follows are compounds tested on S. pyogenes MMX 946 Macrolide-Resistant (assay: MIC determination). Conditions: Streptococcus pyogenes; S. pyogenes MMX 946 MacRes; read-out: MIC.
Assay type: cell-based

| SMILES | MIC [µg/mL] |
| --- | --- |
| CSC1O[C@H]([C@H](NC(=O)[C@H]2NC[C@@H]3C[C@@H](c4cccc(F)c4)CCO[C@H]32)[C@H](C)Cl)C(O)[C@@H](O)[C@H]1O (some centres unmarked) [FSA-511077] | 32 (≈ 60 µM) |

Same assay, conditions: Streptococcus pyogenes; S. pyogenes MMX 946 Macrolide-Resistant (MacRes); read-out: MIC

| SMILES | MIC [µg/mL] |
| --- | --- |
| CSC1O[C@H]([C@H](NC(=O)[C@H]2NC[C@@H]3C=C(c4cc(F)cc(F)c4)CCO[C@@H]23)[C@H](C)Cl)C(O)[C@@H](O)[C@H]1O (some centres unmarked) [FSA-511074] | > 64 |

These compounds were tested on E. faecalis ATCC 29212 (assay: MIC determination). Conditions: Enterococcus faecalis, ATCC29212, read-out: MIC.
Assay type: cell-based

| SMILES | MIC [µg/mL] |
| --- | --- |
| CSC1O[C@H]([C@H](NC(=O)[C@H]2NC[C@@H]3C[C@@H](c4cccc(F)c4)CCO[C@H]32)[C@H](C)Cl)C(O)[C@@H](O)[C@H]1O (some centres unmarked) [FSA-511077] | 0.5 (≈ 0.938 µM) |
| CSC1O[C@H]([C@H](NC(=O)[C@H]2NC[C@@H]3C=C(c4cc(F)cc(F)c4)CCO[C@@H]23)[C@H](C)Cl)C(O)[C@@H](O)[C@H]1O (some centres unmarked) [FSA-511074] | 4 (≈ 7.29 µM) |

What follows are compounds tested on E. faecalis MMX 847 Macrolide-Resistant (assay: MIC determination). Conditions: Enterococcus faecalis; E. faecalis MMX 847 MacRes; read-out: MIC.
Assay type: cell-based

| SMILES | MIC [µg/mL] |
| --- | --- |
| CSC1O[C@H]([C@H](NC(=O)[C@H]2NC[C@@H]3C[C@@H](c4cccc(F)c4)CCO[C@H]32)[C@H](C)Cl)C(O)[C@@H](O)[C@H]1O (some centres unmarked) [FSA-511077] | 64 (≈ 120 µM) |

Same assay, conditions: Enterococcus faecalis; E. faecalis MMX 847 Macrolide-Resistant (MacRes); read-out: MIC

| SMILES | MIC [µg/mL] |
| --- | --- |
| CSC1O[C@H]([C@H](NC(=O)[C@H]2NC[C@@H]3C=C(c4cc(F)cc(F)c4)CCO[C@@H]23)[C@H](C)Cl)C(O)[C@@H](O)[C@H]1O (some centres unmarked) [FSA-511074] | > 64 |

Each compound was assayed on K. pneumoniae ATCC 10031 (assay: MIC determination). Conditions: Klebsiella pneumoniae, ATCC10031.
Assay type: cell-based

| SMILES | MIC [µg/mL] |
| --- | --- |
| CSC1O[C@H]([C@H](NC(=O)[C@H]2NC[C@@H]3C=C(c4cc(F)cc(F)c4)CCO[C@@H]23)[C@H](C)Cl)C(O)[C@@H](O)[C@H]1O (some centres unmarked) [FSA-511074] | 64 (≈ 117 µM) |

Same assay, conditions: Klebsiella pneumoniae, ATCC10031; K. pneumoniae ATCC 10031; read-out: MIC

| SMILES | MIC [µg/mL] |
| --- | --- |
| CSC1O[C@H]([C@H](NC(=O)[C@H]2NC[C@@H]3C[C@@H](c4cccc(F)c4)CCO[C@H]32)[C@H](C)Cl)C(O)[C@@H](O)[C@H]1O (some centres unmarked) [FSA-511077] | 8 (≈ 15 µM) |

The compounds below were run on E. coli ATCC 25922 (assay: MIC determination). Conditions: Escherichia coli, ATCC25922, E. coli ATCC 25922; read-out: MIC.
Assay type: cell-based

| SMILES | MIC [µg/mL] |
| --- | --- |
| CSC1O[C@H]([C@H](NC(=O)[C@H]2NC[C@@H]3C[C@@H](c4cccc(F)c4)CCO[C@H]32)[C@H](C)Cl)C(O)[C@@H](O)[C@H]1O (some centres unmarked) [FSA-511077] | > 64 |
| CSC1O[C@H]([C@H](NC(=O)[C@H]2NC[C@@H]3C=C(c4cc(F)cc(F)c4)CCO[C@@H]23)[C@H](C)Cl)C(O)[C@@H](O)[C@H]1O (some centres unmarked) [FSA-511074] | > 64 |

The compounds below were run on E. coli MP-9 ΔTolC (assay: MIC determination). Conditions: Escherichia coli.
Assay type: cell-based

| SMILES | MIC [µg/mL] |
| --- | --- |
| CSC1O[C@H]([C@H](NC(=O)[C@H]2NC[C@@H]3C[C@@H](c4cccc(F)c4)CCO[C@H]32)[C@H](C)Cl)C(O)[C@@H](O)[C@H]1O (some centres unmarked) [FSA-511077] | 4 (≈ 7.5 µM) |
| CSC1O[C@H]([C@H](NC(=O)[C@H]2NC[C@@H]3C=C(c4cc(F)cc(F)c4)CCO[C@@H]23)[C@H](C)Cl)C(O)[C@@H](O)[C@H]1O (some centres unmarked) [FSA-511074] | 64 (≈ 117 µM) |

Each compound was assayed on E. coli MP-74 LptD mutant (assay: MIC determination). Conditions: Escherichia coli.
Assay type: cell-based

| SMILES | MIC [µg/mL] |
| --- | --- |
| CSC1O[C@H]([C@H](NC(=O)[C@H]2NC[C@@H]3C[C@@H](c4cccc(F)c4)CCO[C@H]32)[C@H](C)Cl)C(O)[C@@H](O)[C@H]1O (some centres unmarked) [FSA-511077] | 16 (≈ 30 µM) |
| CSC1O[C@H]([C@H](NC(=O)[C@H]2NC[C@@H]3C=C(c4cc(F)cc(F)c4)CCO[C@@H]23)[C@H](C)Cl)C(O)[C@@H](O)[C@H]1O (some centres unmarked) [FSA-511074] | 64 (≈ 117 µM) |

The compounds below were run on H. influenzae ATCC 49247 (assay: MIC determination). Conditions: Haemophilus influenzae, ATCC49247.
Assay type: cell-based

| SMILES | MIC [µg/mL] |
| --- | --- |
| CSC1O[C@H]([C@H](NC(=O)[C@H]2NC[C@@H]3C[C@@H](c4cccc(F)c4)CCO[C@H]32)[C@H](C)Cl)C(O)[C@@H](O)[C@H]1O (some centres unmarked) [FSA-511077] | 16 (≈ 30 µM) |

Same assay, conditions: Haemophilus influenzae, ATCC49247; H. influenzae ATCC 49247; read-out: MIC

| SMILES | MIC [µg/mL] |
| --- | --- |
| CSC1O[C@H]([C@H](NC(=O)[C@H]2NC[C@@H]3C=C(c4cc(F)cc(F)c4)CCO[C@@H]23)[C@H](C)Cl)C(O)[C@@H](O)[C@H]1O (some centres unmarked) [FSA-511074] | > 64 |

Source: patent US11767341B2, “Lincosamide antibiotics and uses thereof” (President and Fellows of Harvard College, priority 2017, dated 2023)
